Measured values as given in the supplement of paper PMC10307832.

Columns and labels:
Test in all cases: relative viability (nuclei count vs DMSO), 5 days (fraction); higher = more cells survive
[1] = compound: CCn1c(-c2nonc2N)nc2cnc(Oc3cccc(NC(=O)c4ccc(OCCN5CCOCC5)cc4)c3)cc21 + CS(=O)(=O)CCNCc1ccc(-c2ccc3ncnc(Nc4ccc(OCc5cccc(F)c5)c(Cl)c4)c3c2)o1 [Lapatinib] (partner 2 µM)
Summary of the method: (§1)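 Medians of duplicate plates are given as relative viability. That measure is the nuclei count in treated wells divided by the count in vehicle wells. Counts were taken on 4× images of lung cancer cell lines in 1536-well plates, 5 days after pin-tool dosing the day after seeding with one drug alone or a fixed anchor-drug dose plus five library-drug doses (not always all listed) in √10 steps.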

[2] = compound: N=C1NC(=O)/C(=C/c2ccc(O)cc2)S1 [Mirin] + O=C(c1cc(Cc2n[nH]c(=O)c3ccccc23)ccc1F)N1CCN(C(=O)C2CC2)CC1 [Olaparib] (partner 8 µM)
Summary of the method: as §1

[3] = compound: CCC1=CN=CN=C1N2CCN(CC2)CC3=NC4=C(N3)C=C(C=C4)C(F)(F)F + N=C(N)NC(=N)NCCc1ccccc1 [Phenformin] (partner 250 µM)
Summary of the method: as §1

[4] = compound: N=C1NC(=O)/C(=C/c2ccc(O)cc2)S1 [Mirin] + N=C(N)NC(=N)NCCc1ccccc1 [Phenformin] (partner 250 µM)
Summary of the method: as §1

Row | Cell Line | relative viability ([1]; first compound 0.04 µM) | relative viability ([1]; first compound 0.1265 µM) | relative viability ([1]; first compound 0.4 µM) | relative viability ([1]; first compound 1.265 µM) | relative viability ([1]; first compound 4 µM) | relative viability ([2]; first compound 0.25 µM) | relative viability ([2]; first compound 0.7906 µM) | relative viability ([2]; first compound 2.5 µM) | relative viability ([2]; first compound 7.906 µM) | relative viability ([2]; first compound 25 µM) | relative viability ([3]; first compound 0.04 µM) | relative viability ([3]; first compound 0.1265 µM) | relative viability ([3]; first compound 0.4 µM) | relative viability ([3]; first compound 1.265 µM) | relative viability ([3]; first compound 4 µM) | relative viability ([4]; first compound 0.25 µM) | relative viability ([4]; first compound 0.7906 µM) | relative viability ([4]; first compound 2.5 µM) | relative viability ([4]; first compound 7.906 µM) | relative viability ([4]; first compound 25 µM)
1 | EBC-1 | 0.224 | 0.206 | 0.196 | 0.179 | 0.197 | 0.707 | 0.783 | 0.693 | 0.561 | 0.471 |  |  |  |  |  |  |  |  |  | 
2 | IA-LM | 1.14 | 0.915 | 1.11 | 0.913 | 0.909 | 0.786 | 0.947 | 0.765 |  | 0.902 |  |  |  |  |  |  |  |  |  | 
3 | LCLC-103H |  |  |  |  |  | 0.703 | 0.892 | 0.758 | 0.847 | 0.89 | 0.303 | 0.294 | 0.322 | 0.289 | 0.348 | 0.342 | 0.345 | 0.324 | 0.387 | 0.358
4 | NCI-H441 |  |  |  |  |  | 0.468 | 0.582 | 0.674 | 0.412 | 0.401 | 0.699 | 0.874 | 0.718 | 0.868 | 0.833 | 0.763 | 0.876 | 0.782 | 0.718 | 0.628
5 | NCI-H522 |  |  |  |  |  | 0.583 | 0.665 | 0.624 | 0.719 | 0.508 | 0.628 | 0.583 | 0.571 | 0.64 | 0.601 | 0.608 | 0.621 | 0.6 | 0.574 | 0.559
6 | NCI-H1299 | 0.951 | 0.86 | 0.836 | 0.724 | 0.625 | 1.03 | 1.01 | 0.958 | 0.867 | 1.03 |  |  |  |  |  |  |  |  |  | 
7 | NCI-H1563 | 1.01 | 0.822 | 0.804 | 0.782 | 0.673 |  |  |  |  |  | 0.713 | 0.639 | 0.662 | 0.661 | 0.689 | 0.668 | 0.76 | 0.67 | 0.703 | 0.657
8 | NCI-H1623 |  |  |  |  |  |  |  |  |  |  | 0.58 | 0.543 | 0.604 | 0.525 | 0.62 | 0.562 | 0.383 | 0.577 | 0.459 | 0.48
9 | NCI-H1648 |  |  |  |  |  | 0.572 |  | 0.955 | 0.639 | 0.764 |  |  |  |  |  |  |  |  |  | 
10 | NCI-H1703 | 1.2 | 0.939 | 0.715 | 0.376 | 0.361 | 0.414 | 0.384 | 0.412 |  | 0.635 |  |  |  |  |  |  |  |  |  | 
11 | NCI-H2342 |  |  |  |  |  | 0.441 | 0.442 | 0.427 |  | 0.368 | 0.579 | 0.477 | 0.611 | 0.429 | 0.547 | 0.724 | 0.559 | 0.658 | 0.37 | 0.48
12 | SW 900 |  |  |  |  |  | 0.842 | 0.959 | 0.848 | 0.913 | 0.767 | 0.571 | 0.555 | 0.648 | 0.551 | 0.832 | 0.732 | 0.654 | 0.488 | 0.597 | 0.629
